The text below walks through data of US10799605B2 (3B PHARMACEUTICALS GMBH, priority 2014, dated 2020).

SMILES strings stand for the structures. Some results are limits rather than exact numbers.

What is called IC50 is the concentration at which inhibition is half-maximal. Lower therefore signals greater potency. By EC50 is commonly meant the concentration that produces a half-maximal response. Read a low EC50 as a more potent agent.

The target in assay [1] is T1, NTR1 (Homo sapiens (Human), UniProt P30989). Nature of the assay: Radioligand binding assay NTR1 (example part I). How it is done: In order to determine the binding affinity of compounds comprising a radiolabel for NTR1, a radioligand binding assay was carried out. A radioligand is a radioactive biochemical substance that is used for diagnosis or for research-oriented study of cellular receptor systems of the body. In […] systems it is often used to quantify the binding of a test molecule to the binding site of radioligand. The higher the affinity of the molecule, the more radioligand is displaced from the binding site. The amount of bound radioligand can be measured by scintillation counting and thereby quantified. This assay is commonly used to calculate binding constants of molecules to receptors.
T1 sequence (P30989 whole entry): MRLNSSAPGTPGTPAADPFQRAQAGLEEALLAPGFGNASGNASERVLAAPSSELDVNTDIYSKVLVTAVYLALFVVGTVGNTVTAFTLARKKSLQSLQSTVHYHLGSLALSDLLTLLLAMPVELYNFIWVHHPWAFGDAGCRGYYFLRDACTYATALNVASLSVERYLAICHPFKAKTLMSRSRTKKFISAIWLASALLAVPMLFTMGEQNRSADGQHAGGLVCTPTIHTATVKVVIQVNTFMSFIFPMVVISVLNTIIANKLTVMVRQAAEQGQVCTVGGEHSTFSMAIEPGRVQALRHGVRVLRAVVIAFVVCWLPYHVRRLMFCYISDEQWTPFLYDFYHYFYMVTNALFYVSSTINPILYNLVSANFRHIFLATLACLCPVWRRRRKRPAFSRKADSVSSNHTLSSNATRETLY
The NTR1 radioligand binding assay was performed by Cerep (Celle l'Evescault, France; Catalog reference 0109) according to Vita et al., FEBS Lett., 1993, 317, 139-142. NTR1 was prepared from CHO cells recombinantly expressing the human receptor and incubated with 0.05 nM ^125I-(Tyr^3-neurotensin) and serial dilutions of the test compounds. […] The result for each test compound is expressed as IC50 concentration and provides a measure for the affinity of the test compound for NTR1.

Assay [2] addresses T1, NTR1. Description: Functional Ca2+ mobilisation assay (example part I). The format is cell-based. The following applies: for shape of EC50 curve: agonist assay. From the text:
Ca^2+ ions are usually kept at nanomolar levels in the cytosol of cells, and act in a number of signal transduction pathways as second messengers. […] Changes in calcium ion concentration in standard assay protocols can be readily detected with fluorescent dyes that emit light when changes in intracellular Ca^2+ ion concentration occur. Given the transient nature of these responses, they are often read with instrumentation that has ‘inject and read’ capability.
HT29 or NTR1-expressing HEK293 cells were trypsinized and seeded into black flat clear-bottom 96-well plates (Corning, Amsterdam, The Netherlands) at […] cells per well. After 24 h incubation at 37° C. and 5% CO2, cells were washed twice with wash buffer (130 mM NaCl, 5 mM KCl, 10 mM Hepes, 2 mM CaCl2, 10 mM Glucose, pH 7.4) and loaded with 100 μl of Ca5 dye (Molecular Devices, Biberach, Germany) for 1 h at 37° C. and 5% CO2. For agonist assays, serial dilutions of agonistic substances were added to the cells loaded with dye and the change of the fluorescent signal was recorded continually for approx. 90 s using a FlexStation II (Molecular Devices, Biberach, Germany). Addition of wash buffer served as a control. Thus, EC50 concentrations for each conjugate were computed and provided a measure for the potency of the substance. For antagonist assays, cells loaded with 100 μl of Ca5-dye were pre-incubated with serial dilutions of antagonistic substances for 30 min, before the EC80-concentration of agonist was added to the cells and the change of the fluorescent signal was recorded continually for approx. 90 s. Thus, IC50 concentrations were computed for each conjugate and provided a measure for the inhibitory activity of the conjugates at the NTR1.
On the technique in general: Calcium flux is commonly read through the fluorescence of an indicator in the cells.

`COc1cccc(OC)c1-c1cc(C(=O)NC2(C(=O)O)C3CC4CC(C3)CC2C4)nn1-c1ccc(C(=O)N(C)CCCN(C)CCCN(C)C(=O)CCCC(=O)NCCCOCCOCCOCCCNC(=O)CCC(=O)NCCCOCCOCCOCCCNC(=O)CCC(=O)NCCCOCCOCCOCCCNC(=O)CCC(=O)N[C@@H](CCCCNC(=O)CN2CCN(CC(=O)O)CCN(CC(=O)O)CCN(CC(=O)O)CC2)C(=O)NCCCOCCOCCOCCCNC(=O)CCC(=O)NCCCOCCOCCOCCCNC(=O)CCC(=O)NCCCOCCOCCOCCCNC(=O)CCC(=O)NCCCC(=O)N[C@H](CCCNC(=N)N)C(=O)N[C@@H](CCCNC(=N)N)C(=O)N2CCC[C@H]2C(=O)N[C@@H](Cc2ccc(O)cc2)C(=O)N[C@H](C(=O)N[C@@H](CC(C)C)C(=O)O)C(C)(C)C)cc1C(C)C` (stereo partly drawn) [(18), 1206-Glutar-Ttds3-Lys(DOTA)-Ttds3-GABA-arg-Arg-Pro-Tyr-Tle-Leu-OH] yielded an IC50 at NTR1 [1] of 2.7 nM. Also, at NTR1 [2], the EC50 was > 50000 nM and the IC50 turned out to be 3.8 nM.
In the case of `COc1cccc(OC)c1-c1cc(C(=O)NC2(C(=O)O)C3CC4CC(C3)CC2C4)nn1-c1ccc(C(=O)N(C)CCCN(C)CCCN(C)C(=O)CCCC(=O)NCCCOCCOCCOCCCNC(=O)CCC(=O)N[C@@H](CCCCNC(=O)CN2CCN(CC(=O)O)CCN(CC(=O)O)CCN(CC(=O)O)CC2)C(=O)NCCCOCCOCCOCCCNC(=O)CCC(=O)NCCCC(=O)N[C@H](CCCNC(=N)N)C(=O)N[C@@H](CCCNC(=N)N)C(=O)N2CCC[C@H]2C(=O)N[C@@H](Cc2ccc(O)cc2)C(=O)N[C@H](C(=O)N[C@@H](CC(C)C)C(=O)O)C(C)(C)C)cc1C(C)C` (stereo partly drawn) [(17), 1206-Glutar-Ttds-Lys(DOTA)-Ttds-GABA-arg-Arg-Pro-Tyr-Tle-Leu-OH], the IC50 on NTR1 [1] was 0.32 nM. For the same compound, at NTR1 [2], the EC50 turned out to be 7 nM, the IC50 amounted to 3.4 nM and the “shape of EC50 curve” value is on record as “bell-shaped EC50 curves”.
`COc1cccc(OC)c1-c1cc(C(=O)NC2(C(=O)O)C3CC4CC(C3)CC2C4)nn1-c1ccc(C(=O)N(C)CCCN(C)CCCN(C)C(=O)CCCC(=O)NCCCOCCOCCOCCCNC(=O)CCC(=O)N[C@@H](CCCCNC(=O)CN2CCN(CC(=O)O)CCN(CC(=O)O)CCN(CC(=O)O)CC2)C(=O)NCCCOCCOCCOCCCNC(=O)CCC(=O)NCCCC(=O)N[C@@H](CC(N)=O)C(=O)N[C@@H](C)C(=O)N[C@H](C(=O)N2CCC[C@H]2C(=O)N[C@@H](CC(N)=O)C(=O)N[C@@H](CC(C)C)C(=O)N[C@@H](CCCNC(=N)N)C(=O)NCC(=O)N[C@@H](CC(=O)O)C(=O)N[C@@H](CC(C)C)C(=O)N[C@@H](CCC(N)=O)C(=O)N[C@H](C(=O)N[C@@H](CC(C)C)C(=O)N[C@@H](C)C(=O)N[C@@H](CCC(N)=O)C(=O)N[C@@H](CCCCN)C(=O)N[C@H](C(=O)N[C@@H](C)C(=O)N[C@@H](CCCNC(=N)N)C(=O)N[C@H](C(N)=O)[C@@H](C)O)C(C)C)C(C)C)C(C)C)cc1C(C)C` (some centres unmarked) [(21)]: the IC50 at NTR1 [1] came to 10 nM. For the same compound, on NTR1 [2], the EC50 was > 50000 nM and the IC50 amounted to 18 nM.
The compound `COc1cccc(OC)c1-c1cc(C(=O)NC2(C(=O)O)C3CC4CC(C3)CC2C4)nn1-c1ccc(C(=O)N(C)CCCN(C)CCCN(C)C(=O)CCCC(=O)NCCCOCCOCCOCCCNC(=O)CCC(=O)N[C@@H](CCCCNC(=O)CN2CCN(CC(=O)O)CCN(CC(=O)O)CCN(CC(=O)O)CC2)C(=O)NCCCOCCOCCOCCCNC(=O)CCC(=O)NCCCC(=O)N[C@@H](CCCNC(=N)N)C(=O)N[C@@H](CCCNC(=N)N)C(=O)N2CCC[C@H]2C(=O)N[C@@H](Cc2ccc(O)cc2)C(=O)N[C@H](C(=O)N[C@@H](CC(C)C)C(=O)O)C(C)(C)C)cc1C(C)C` (stereo partly drawn) [(16), 1206-Glutar-Ttds-Lys(DOTA)-Ttds-GABA-Arg-Arg-Pro-Tyr-Tle-Leu-OH] came in with an IC50 at NTR1 [1] of 0.14 nM. Also, on NTR1 [2], the midpoint of the response, the EC50, lay at 4 nM; half-maximal inhibition (IC50) was put at 3.8 nM; the “shape of EC50 curve” value is “bell-shaped EC50 curves”.
